Values quoted from earlier work as cited in patent US8058278B2, “Methods of enhancing mucosal hydration and mucosal clearance by treatment with sodium channel blockers and osmolytes” (Parion Sciences, Inc., priority 2006, dated 2011).

System: water permeability of airways
Details: amiloride used concurrently with hypertonic saline

N=C(N)NC(=O)c1nc(Cl)c(N)nc1N [Amiloride, amiloride]
effect on water permeability of airways: block the water permeability of airways
